What all share (assay): Screen Quest Fluo-8 No Wash Calcium Assay (Bz-ATP evoked Ca2+ influx, FLIPR)
Holding throughout (format): cell-based

Experiment [1] has as its target T1, P2X7 receptor (Homo sapiens, UniProt Q99572).
T1 sequence (Q99572 1-595): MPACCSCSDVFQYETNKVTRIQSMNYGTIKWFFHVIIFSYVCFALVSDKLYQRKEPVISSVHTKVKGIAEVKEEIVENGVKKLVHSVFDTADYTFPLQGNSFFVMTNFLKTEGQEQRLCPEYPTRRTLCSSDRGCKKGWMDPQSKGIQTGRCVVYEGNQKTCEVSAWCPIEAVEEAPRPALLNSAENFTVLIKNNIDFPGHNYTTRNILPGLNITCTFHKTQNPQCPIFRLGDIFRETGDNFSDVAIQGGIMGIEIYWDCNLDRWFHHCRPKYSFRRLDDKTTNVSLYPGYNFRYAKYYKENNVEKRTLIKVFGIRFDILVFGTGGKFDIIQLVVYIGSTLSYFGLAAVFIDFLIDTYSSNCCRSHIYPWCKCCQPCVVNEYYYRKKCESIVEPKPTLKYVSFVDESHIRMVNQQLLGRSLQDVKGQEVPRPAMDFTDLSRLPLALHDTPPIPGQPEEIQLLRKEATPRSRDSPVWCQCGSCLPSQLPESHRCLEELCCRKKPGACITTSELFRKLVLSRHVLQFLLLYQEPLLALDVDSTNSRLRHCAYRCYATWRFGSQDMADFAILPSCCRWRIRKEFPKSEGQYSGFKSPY
The arrangement: hP2X7 (IC50; nM); other: hP2X7; HEK-293 cells stably transfected with P2X7 receptor, Bz-ATP at EC80, Fluo-8 NW; potency. The note with it: hP2X7; HEK-293 cells stably transfected with P2X7 receptor, Bz-ATP at EC80, Fluo-8 NW; potency ranges A-D. The essentials:
(§1)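 HEK-293 cells stably expressing P2X7 were loaded with Fluo-8 NW for 1 h at RT, then given compound, and 5 min later Bz-ATP at EC80. Fluorescence was read by FLIPR in low divalent cation buffer (0.3 mM Ca2+, 0 mM Mg2+). IC50 came from percent inhibition relative to reference antagonist A438079.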

Experiment [2] deals with T2, P2X7 receptor (Mus musculus, UniProt Q9Z1M0).
T2 construct: mP2X7 (IC50; nM); other: mP2X7; HEK-293 cells stably transfected with P2X7 receptor, Bz-ATP at EC80, Fluo-8 NW; potency
T2 sequence (Q9Z1M0 1-595): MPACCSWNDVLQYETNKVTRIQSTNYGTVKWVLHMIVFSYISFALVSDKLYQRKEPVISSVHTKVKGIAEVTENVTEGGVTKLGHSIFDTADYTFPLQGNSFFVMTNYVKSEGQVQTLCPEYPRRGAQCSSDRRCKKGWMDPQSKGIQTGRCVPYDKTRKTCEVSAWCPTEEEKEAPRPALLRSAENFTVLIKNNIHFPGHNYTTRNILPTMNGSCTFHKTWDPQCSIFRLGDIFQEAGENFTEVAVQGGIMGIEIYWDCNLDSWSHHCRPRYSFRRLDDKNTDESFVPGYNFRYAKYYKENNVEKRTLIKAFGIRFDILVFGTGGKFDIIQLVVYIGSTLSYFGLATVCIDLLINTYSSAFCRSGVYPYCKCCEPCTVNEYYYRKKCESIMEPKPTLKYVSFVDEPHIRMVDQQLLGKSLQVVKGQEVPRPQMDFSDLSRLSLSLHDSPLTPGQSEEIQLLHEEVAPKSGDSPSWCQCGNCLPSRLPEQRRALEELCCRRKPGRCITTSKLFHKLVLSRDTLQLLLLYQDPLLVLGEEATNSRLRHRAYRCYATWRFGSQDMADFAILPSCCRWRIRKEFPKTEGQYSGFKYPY
The note with it: mP2X7; HEK-293 cells stably transfected with P2X7 receptor, Bz-ATP at EC80, Fluo-8 NW; potency ranges A-D. The essentials: as §1

Experiment [3] has as its target T3, P2X7 receptor (Rattus norvegicus, UniProt Q64663).
T3 construct: rP2X7 (IC50; nM); other: rP2X7; HEK-293 cells stably transfected with P2X7 receptor, Bz-ATP at EC80, Fluo-8 NW; potency
T3 sequence (Q64663 1-595): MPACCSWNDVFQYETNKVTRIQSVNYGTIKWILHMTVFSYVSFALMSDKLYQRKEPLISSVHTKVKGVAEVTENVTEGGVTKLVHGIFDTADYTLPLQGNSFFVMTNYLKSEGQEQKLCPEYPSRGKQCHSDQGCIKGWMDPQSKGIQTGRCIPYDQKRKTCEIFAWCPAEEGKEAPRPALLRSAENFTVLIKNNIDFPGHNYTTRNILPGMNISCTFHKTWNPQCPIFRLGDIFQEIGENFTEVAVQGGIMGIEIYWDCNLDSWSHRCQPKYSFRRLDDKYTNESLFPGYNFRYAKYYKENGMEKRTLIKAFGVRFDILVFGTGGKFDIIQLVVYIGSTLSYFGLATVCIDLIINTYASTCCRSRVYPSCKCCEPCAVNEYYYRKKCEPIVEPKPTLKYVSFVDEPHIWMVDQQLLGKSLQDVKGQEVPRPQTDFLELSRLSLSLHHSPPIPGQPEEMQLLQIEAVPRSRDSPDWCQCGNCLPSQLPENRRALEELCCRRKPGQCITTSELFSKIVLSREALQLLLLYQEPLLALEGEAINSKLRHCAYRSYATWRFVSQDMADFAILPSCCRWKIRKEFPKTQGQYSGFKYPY
The note with it: rP2X7; HEK-293 cells stably transfected with P2X7 receptor, Bz-ATP at EC80, Fluo-8 NW; potency ranges A-D. In a few lines:
as §1

Some results are limits rather than exact numbers.

As for `O=c1onc(Cc2c(F)cccc2Cl)n1CC1CCOCC1` [Example 93, 3-[(2-chloro-6-fluorophenyl)methyl]-4-(oxan-4-ylmethyl)-4,5-dihydro-1,2,4-oxadiazol-5-one], the values for the IC50 in experiment [1], in experiment [2] and in experiment [3] were 1000 to 10000 nM, 1000 to 10000 nM and 200 to 1000 nM, respectively.

With `CC#CCn1c(Cc2c(F)cccc2Cl)noc1=O` [Example 95, 4-(but-2-yn-1-yl)-3-[(2-chloro-6-fluorophenyl)methyl]-4,5-dihydro-1,2,4-oxadiazol-5-one], the IC50 in experiment [1], in experiment [2] and in experiment [3] was > 10000 nM throughout.

Regarding `O=c1onc(Cc2c(F)cccc2Cl)n1CC1COCCO1` (stereo not drawn) [Example 98, 3-[(2-chloro-6-fluorophenyl)methyl]-4-(1,4-dioxan-2-ylmethyl)-4,5-dihydro-1,2,4-oxadiazol-5-one], the figures for the IC50 in experiment [1], in experiment [2] and in experiment [3] were > 10000 nM, > 10000 nM and 1000 to 10000 nM, respectively.

For `COCn1c(Cc2c(F)cccc2Cl)noc1=O` [Example 100, 3-[(2-chloro-6-fluorophenyl)methyl]-4-(methoxymethyl)-4,5-dihydro-1,2,4-oxadiazol-5-one], the IC50 in experiment [1], in experiment [2] and in experiment [3] was > 10000 nM each time.

`CCOCn1c(Cc2c(F)cccc2Cl)noc1=O` [Example 101, 3-[(2-chloro-6-fluorophenyl)methyl]-4-(ethoxymethyl)-4,5-dihydro-1,2,4-oxadiazol-5-one]: the IC50 in experiment [1], in experiment [2] and in experiment [3] was > 10000 nM in each case.

With `CCCOCn1c(Cc2c(F)cccc2Cl)noc1=O` [Example 102, 3-[(2-chloro-6-fluorophenyl)methyl]-4-(propoxymethyl)-4,5-dihydro-1,2,4-oxadiazol-5-one], the IC50 (usually the concentration that gives 50% inhibition) in experiment [1] is 1000 to 10000 nM; in experiment [2], > 10000 nM; in experiment [3], 1000 to 10000 nM.

Consider `O=c1onc(Cc2ccccn2)n1Cc1ccc(F)cc1` [Example 104, 4-[(4-fluorophenyl)methyl]-3-(pyridin-2-ylmethyl)-4,5-dihydro-1,2,4-oxadiazol-5-one], for which the IC50 in experiment [1], in experiment [2] and in experiment [3] was > 10000 nM in each case.

With `O=c1onc(Cc2ccccc2C(F)(F)F)n1Cc1ccc(F)cc1` [Example 105, 4-[(4-fluorophenyl)methyl]-3-{[2-(trifluoromethyl)phenyl]methyl}-4,5-dihydro-1,2,4-oxadiazol-5-one], the IC50 in experiment [1], in experiment [2] and in experiment [3] was 1000 to 10000 nM each time.

Consider `O=c1onc(Cc2cccc(F)c2)n1Cc1ccc(F)cc1` [Example 107, 3-[(3-fluorophenyl)methyl]-4-[(4-fluorophenyl)methyl]-4,5-dihydro-1,2,4-oxadiazol-5-one], for which the IC50 in experiment [1], in experiment [2] and in experiment [3] was 1000 to 10000 nM each time.

Take `O=c1onc(Cc2ccccc2)n1Cc1ccc(F)cc1` [Example 108, 3-benzyl-4-[(4-fluorophenyl)methyl]-4,5-dihydro-1,2,4-oxadiazol-5-one]: the IC50 in experiment [1], in experiment [2] and in experiment [3] was 1000 to 10000 nM in each case.

Turning to `COc1cccc(Cc2noc(=O)n2Cc2ccc(F)cc2)c1` [Example 109, 4-[(4-fluorophenyl)methyl]-3-[(3-methoxyphenyl)methyl]-4,5-dihydro-1,2,4-oxadiazol-5-one], the IC50 is 1000 to 10000 nM in experiment [1], > 10000 nM in experiment [2] and 1000 to 10000 nM in experiment [3].

With `O=c1onc(Cc2ccccn2)n1CC1CCCCC1` [Example 110, 4-(cyclohexylmethyl)-3-(pyridin-2-ylmethyl)-4,5-dihydro-1,2,4-oxadiazol-5-one], the IC50 in experiment [1] was > 10000 nM; in experiment [2], > 10000 nM; in experiment [3] it was 1000 to 10000 nM.

With `O=c1onc(Cc2ccncc2)n1CC1CCCCC1` [Example 111, 4-(cyclohexylmethyl)-3-(pyridin-4-ylmethyl)-4,5-dihydro-1,2,4-oxadiazol-5-one], the figures for the IC50 in experiment [1], in experiment [2] and in experiment [3] were > 10000 nM, 200 to 1000 nM and 1000 to 10000 nM, respectively.

For the molecule `COc1ccc(Cc2noc(=O)n2CC2CCCCC2)cc1` [Example 112, 4-(cyclohexylmethyl)-3-[(4-methoxyphenyl)methyl]-4,5-dihydro-1,2,4-oxadiazol-5-one], the concentration for half-maximal inhibition (IC50) in experiment [1] fell in the range of 1000 to 10000 nM; in experiment [2], 1000 to 10000 nM; in experiment [3] it was 200 to 1000 nM.

As for `O=c1onc(Cc2cccc(C(F)(F)F)c2Cl)n1CC1CCCCC1` [Example 113, 3-{[2-chloro-3-(trifluoromethyl)phenyl]methyl}-4-(cyclohexylmethyl)-4,5-dihydro-1,2,4-oxadiazol-5-one], the IC50 in experiment [1], in experiment [2] and in experiment [3] was 1000 to 10000 nM throughout.

Consider `CC(C)(c1c(F)cccc1Cl)c1noc(=O)n1CC1CCCCC1` [Example 121, 3-[2-(2-chloro-6-fluorophenyl)propan-2-yl]-4-(cyclohexylmethyl)-4,5-dihydro-1,2,4-oxadiazol-5-one], for which the IC50 in experiment [1], in experiment [2] and in experiment [3] was > 10000 nM in each case.

As for `CC(c1c(F)cccc1Cl)c1noc(=O)n1CC1CCCCC1` (stereo not drawn) [Example 122, 3-[1-(2-chloro-6-fluorophenyl)ethyl]-4-(cyclohexylmethyl)-4,5-dihydro-1,2,4-oxadiazol-5-one], the IC50 in experiment [1] is > 10000 nM; in experiment [2], > 10000 nM; in experiment [3], 1000 to 10000 nM.

With `O=c1onc(Cc2cccnc2)n1CC1CCCCC1` [Example 123, 4-(cyclohexylmethyl)-3-(pyridin-3-ylmethyl)-4,5-dihydro-1,2,4-oxadiazol-5-one], the IC50 in experiment [1], in experiment [2] and in experiment [3] was 1000 to 10000 nM each time.

As for `O=c1onc(Cc2cccc(F)c2)n1CC1CCCCC1` [Example 125, 4-(cyclohexylmethyl)-3-[(3-fluorophenyl)methyl]-4,5-dihydro-1,2,4-oxadiazol-5-one], the IC50 in experiment [1] was in the range of 1000 to 10000 nM; in experiment [2] it was 1000 to 10000 nM; in experiment [3], 200 to 1000 nM.

`O=c1onc(Cc2ccccc2)n1CC1CCCCC1` [Example 126, 3-benzyl-4-(cyclohexylmethyl)-4,5-dihydro-1,2,4-oxadiazol-5-one]: the half-inhibitory concentration (IC50) was in the range of 1000 to 10000 nM in experiment [1], 1000 to 10000 nM in experiment [2] and 200 to 1000 nM in experiment [3].

The values above are taken from patent US11623919B2, “Heterocyclic P2X7 antagonists” (AXXAM S.P.A., priority 2017, dated 2023).
